Laboratory results reported in patent US7414051B2, “Substituted-dihydro[1,4]oxazino[2,3,4-hi]indazole derivatives as 5-hydroxytryptamine-6 ligands” (Wyeth, priority 2006, dated 2008).
Counter-ions that a name gives are not always drawn.

How the values were obtained:
[1] = target: T1, human cloned 5-HT6 receptors (Homo sapiens, UniProt P50406); assay: 5-HT6 binding affinity, [3H]-LSD displacement, membranes of Hela cells expressing human cloned 5-HT6 receptors
T1 construct: expressed in transfected cells; host or cells: HeLa cells
T1 sequence (P50406 whole entry): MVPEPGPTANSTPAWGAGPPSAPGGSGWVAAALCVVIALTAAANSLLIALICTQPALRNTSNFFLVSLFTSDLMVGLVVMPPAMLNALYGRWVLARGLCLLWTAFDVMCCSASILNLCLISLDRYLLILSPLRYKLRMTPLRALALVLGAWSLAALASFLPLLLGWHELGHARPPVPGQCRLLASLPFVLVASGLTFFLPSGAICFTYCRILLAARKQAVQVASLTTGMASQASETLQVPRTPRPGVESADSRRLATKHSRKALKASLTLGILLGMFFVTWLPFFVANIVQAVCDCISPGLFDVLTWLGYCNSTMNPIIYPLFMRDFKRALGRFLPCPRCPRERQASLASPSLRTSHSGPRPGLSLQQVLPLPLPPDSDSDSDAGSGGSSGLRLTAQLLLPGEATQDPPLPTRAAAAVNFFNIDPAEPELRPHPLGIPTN
Protocol: The affinity of test compounds for the serotonin 5-HT6 receptor was evaluated in the following manner. Cultured Hela cells expressing human cloned 5-HT6 receptors were harvested and centrifuged at low speed (1,000×g) for 10.0 minutes to remove the culture media. The harvested cells were suspended in half volume of fresh physiological phosphate buffered saline solution and recentrifuged at the same speed. This operation was repeated. The collected cells were then homogenized in ten volumes of 50 mM Tris.HCl (pH 7.4) and 0.5 mM EDTA. The homogenate was centrifuged at 40,000×g for 30.0 min and the precipitate was collected. The obtained pellet was resuspended in 10 volumes of Tris.HCl buffer and recentrifuged at the same speed. The final pellet was suspended in a small volume of Tris.HCl buffer and the tissue protein content was determined in aliquots of 10-25 μl volumes. Bovine Serum Albumin was used as the standard in the protein determination according to the method described in Lowry et al., J. Biol. Chem., 193: 265 (1951). The volume of the suspended cell membranes was adjusted to give a tissue protein concentration of 1.0 mg/ml of suspension. The prepared membrane suspension (10 times concentrated) was aliquoted in 1.0 ml volumes and stored at −70° C. until used in subsequent binding experiments.
Binding experiments were performed in a 96 well microtiter plate format, in a total volume of 200 μl. […] The test compounds were added in 20.0 μl volume.
The reaction was allowed to proceed in the dark for 120 minutes at room temperature, at which time, the bound ligand-receptor complex was filtered off on a 96 well unifilter with a Packard Filtermate® 196 Harvester. The bound complex caught on the filter disk was allowed to air dry and the radioactivity is measured in a Packard TopCount® equipped with six photomultiplier detectors, after the addition of 40.0 μl Microscint®-20 scintillant to each shallow well. The unifilter plate was heat-sealed and counted in a PackardTopCount® with a tritium efficiency of 31.0%.
Binding in the presence of varying concentrations of test compound was expressed as a percentage of specific binding in the absence of test compound. The results were plotted as log % bound versus log concentration of test compound. […] A linear regression line of data points was plotted, from which the IC50 value is determined and the Ki value is determined based upon the following equation: Ki=IC50/(1+L/KD) where L was the concentration of the radioactive ligand used and KD is the dissociation constant of the ligand for the receptor, both expressed in nM.

melting point [°C]	Ki [1] [nM]	SMILES
90 to 92	26	O=S(=O)(c1cccc2ccccc12)c1nn2c3c(cc(OCCN4CCCCC4)cc13)OCC2 [Example 14, 6-(1-Naphthylsulfonyl)-8-(2-piperidin-1-ylethoxy)-2,3-dihydro[1,4]oxazino[2,3,4-hi]-indazole]
	5.1	CNCCOc1cc2c3c(c1)c(S(=O)(=O)c1cccc4ccccc14)nn3CCO2 [Example 12, N-methyl-2-{[6-(1-naphthylsulfonyl)-2,3-dihydro[1,4]oxazino[2,3,4-hi]indazol-8-yl]oxy}ethanamine Hydrochloride]
> 225		CN1CCN(c2cc3c4c(c2)c(S(=O)(=O)c2cccc5ccccc25)nn4CCO3)CC1 (as salt: hydrochloride) [Example 6, 8-(4-Methylpiperazin-1-yl)-6-(1-naphthylsulfonyl)-2,3-dihydro[1,4]oxazino[2,3,4-hi]indazole Hydrochloride]
127 to 129	14	O=S(=O)(c1cccc2ccccc12)c1nn2c3c(cc(OCCN4CCCC4)cc13)OCC2 [Example 15, 6-(1-Naphthylsulfonyl)-8-(2-pyrrolidin-1-ylethoxy)-2,3-dihydro[1,4]oxazino[2,3,4-hi]-indazole]
	1	CN1CCN(c2cc3c4c(c2)c(S(=O)(=O)c2cccc5ccccc25)nn4CCO3)CC1 [Example 6, 8-(4-Methylpiperazin-1-yl)-6-(1-naphthylsulfonyl)-2,3-dihydro[1,4]oxazino[2,3,4-hi]indazole Hydrochloride]
	7.9	CN(C)CCOc1cc2c3c(c1)c(S(=O)(=O)c1cccc4ccccc14)nn3CCO2 [Example 13, N,N-Dimethyl-2-{[6-(1-naphthylsulfonyl)-2,3-dihydro[1,4]oxazino[2,3,4-hi]indazol-8-yl]oxy}ethanamine]
